Laboratory results taken from PubChem BioAssay AID2060889 (Molecular Pharmacology Branch, DTP, NCI, 2025).

Test system: LG0567-F671-PDC complex spheroids viability
Experiment: Anticancer human tumor LG0567-F671-PDC patient-derived lung adenocarcinoma cell line growth inhibition [RAS]
Details: for IC50: curve of first compound; for viability, T/C: stronger effect = lower value
Method in brief: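 Tumour cells grown as complex spheroids with HUVEC endothelial cells and mesenchymal stem cells, treated with RAS pathway inhibitor combinations. Each agent spans half-log steps from near clinical Cmax, or 10 microM where Cmax is unknown.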
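Note: spheroids exposed to compound for seven days before readout.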
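Throughout, for IC50: luminescence signal used as a proxy for viable cells.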

NC1c2ccccc2OC12CCN(c1cnc3c(N4CCCc5ncccc54)n[nH]c3n1)CC2 (configuration not stated) + CCn1c(-c2cc(N3CCN(C)CC3)cnc2C(C)OC)c2c3cc(ccc31)-c1csc(n1)CC(NC(=O)C1CC1C)C(=O)N1CCCC(N1)C(=O)OCC(C)(C)C2
IC50 (second compound 0.000949 µM): < 31.6 nM
IC50 (second compound 0.003 µM): < 31.6 nM
IC50 (second compound 0.00949 µM): < 31.6 nM
IC50 (second compound 0.03 µM): < 31.6 nM
IC50 (second compound 0.0949 µM): < 31.6 nM
IC50 (second compound 0.3 µM): < 31.6 nM
viability, T/C (second compound 0.000949 µM, first compound 0.0316 µM): 6.06%
viability, T/C (second compound 0.000949 µM, first compound 0.1 µM): 4.3%
viability, T/C (second compound 0.000949 µM, first compound 0.316 µM): 2.12%
viability, T/C (second compound 0.000949 µM, first compound 1 µM): 1.95%
viability, T/C (second compound 0.000949 µM, first compound 3.16 µM): 1.97%
viability, T/C (second compound 0.000949 µM, first compound 10 µM): 1.51%
viability, T/C (second compound 0.003 µM, first compound 0.0316 µM): 3.74%
viability, T/C (second compound 0.003 µM, first compound 0.1 µM): 2.3%
viability, T/C (second compound 0.003 µM, first compound 0.316 µM): 1.62%
viability, T/C (second compound 0.003 µM, first compound 1 µM): 1.58%
viability, T/C (second compound 0.003 µM, first compound 3.16 µM): 1.33%
viability, T/C (second compound 0.003 µM, first compound 10 µM): 1.84%
viability, T/C (second compound 0.00949 µM, first compound 0.0316 µM): 2.32%
viability, T/C (second compound 0.00949 µM, first compound 0.1 µM): 1.6%
viability, T/C (second compound 0.00949 µM, first compound 0.316 µM): 1.26%
viability, T/C (second compound 0.00949 µM, first compound 1 µM): 0.84%
viability, T/C (second compound 0.00949 µM, first compound 3.16 µM): 1.05%
viability, T/C (second compound 0.00949 µM, first compound 10 µM): 1.1%
viability, T/C (second compound 0.03 µM, first compound 0.0316 µM): 1.64%
viability, T/C (second compound 0.03 µM, first compound 0.1 µM): 1.27%
viability, T/C (second compound 0.03 µM, first compound 0.316 µM): 1.19%
viability, T/C (second compound 0.03 µM, first compound 1 µM): 0.92%
viability, T/C (second compound 0.03 µM, first compound 3.16 µM): 1.02%
viability, T/C (second compound 0.03 µM, first compound 10 µM): 0.81%
viability, T/C (second compound 0.0949 µM, first compound 0.0316 µM): 1.33%
viability, T/C (second compound 0.0949 µM, first compound 0.1 µM): 1.55%
viability, T/C (second compound 0.0949 µM, first compound 0.316 µM): 0.92%
viability, T/C (second compound 0.0949 µM, first compound 1 µM): 0.69%
viability, T/C (second compound 0.0949 µM, first compound 3.16 µM): 0.98%
viability, T/C (second compound 0.0949 µM, first compound 10 µM): 0.76%
viability, T/C (second compound 0.3 µM, first compound 0.0316 µM): 1.37%
viability, T/C (second compound 0.3 µM, first compound 0.1 µM): 1.39%
viability, T/C (second compound 0.3 µM, first compound 0.316 µM): 0.9%
viability, T/C (second compound 0.3 µM, first compound 1 µM): 0.72%
viability, T/C (second compound 0.3 µM, first compound 3.16 µM): 0.85%
viability, T/C (second compound 0.3 µM, first compound 10 µM): 0.72%
